In this test the target is GPR55 (Homo sapiens, UniProt Q9Y2T6). Description: saturable fluorescent ligand uptake in live cells, reduced by GPR55 siRNA. The test is classed as cell-based.
Sequence of GPR55 (Q9Y2T6 whole entry): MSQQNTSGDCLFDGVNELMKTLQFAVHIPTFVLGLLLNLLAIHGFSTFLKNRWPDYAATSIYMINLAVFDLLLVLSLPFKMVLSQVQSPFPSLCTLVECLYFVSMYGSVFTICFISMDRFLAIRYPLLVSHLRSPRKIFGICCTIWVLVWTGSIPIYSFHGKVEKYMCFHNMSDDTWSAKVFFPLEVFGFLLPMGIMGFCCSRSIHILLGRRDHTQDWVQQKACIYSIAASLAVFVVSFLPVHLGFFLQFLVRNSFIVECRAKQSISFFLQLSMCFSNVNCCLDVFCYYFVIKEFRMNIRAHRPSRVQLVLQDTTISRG

Usually EC50 stands for the concentration at which the effect is half-maximal. Low values mean an effect from little substance, high ones a need for much substance. In turn, Tocrifluor 1117 [T1117] yielded an EC50 of about 8 nM.

The values are drawn from paper PMC3935314 (Biochemical pharmacology, 2013).
